Laboratory results taken from patent US12156918B2, “Neuroendocrine cancer targeted therapy” (THE UAB RESEARCH FOUNDATION, priority 2018, dated 2024).
Where a SMILES comes first, the peptide text is derived from it. [ ]: non-standard residue; d: D form. The star is where a group is joined. Dolaproine = CO[C@@H]([C@@H]1CCCN1)[C@@H](C)C(=O)O; Dil = CC[C@H](C)[C@H](NC)[C@@H](CC(=O)O)OC; X1 = C[C@@H](N*)[C@@H](O)c1ccccc1; NMeV = CN[C@H](C(=O)O)C(C)C

What was measured:
microtubule = assay: Microtubule de-polymerization imaging; format: cell-based, human; conditions: BON cell line
BON-1 cells = assay: In vitro anti-cancer toxicity (IC50), Luminescent Cell Viability Assay; format: cell-based, human; conditions: 3-day incubation
Experimental: In vitro anti-cancer toxicity (IC50). BON cell line was utilized to compare the toxicity of ADC. 75 uL of culture media containing cells (viability >95%) with a density of 5×10^4 cells/mL was added in each well of 96-well plate. ADC or MMAE solution was sterilized by 0.2 μm filter and diluted to different concentrations with complete medium. After 4-hr incubation in regular cell culture incubator, 75 μL of ADC or MMAE with gradient concentrations were mixed with cells in the 96-well plate. The well plate was covered by another 96-well plate filled with PBS to prevent medium evaporation during treatment period. After 3-day incubation, the toxicity result was generated through Luminescent Cell Viability Assay (Promega, Madison, […]).

human CD8+ T cells = assay: Flow cytometry of cytokine expression in CD3/CD28 stimulated T cells; format: cell-based; conditions: 2 days incubation (100 nM elsewhere in the source)
Experimental: Therefore, our novel anti-SSTR2 mAb has great potential as a drug delivery vehicle in the form of ADC. […] Using flow cytometry, we analyze the effect of our SSTR2 mAb on the expression of cytokines in the CD3/CD28 stimulated human CD8+ T cells after incubating with mAb for 2 days.
Moreover, the possible effect of the disclosed anti-SSTR2 mAb on cytokine production in CD8^+ T cells was also tested. Post CD3/CD28 stimulation, human CD8^+ T cells were incubated with either 100 nM of SST analog (Octreotide) or 100 nM of the anti-SSTR2 mAb for 2 days. After incubation, flow cytometry was performed to analyze the expression of IL-2 and IFN-γ.

| Compound | mechanism of NET cell proliferation inhibition (microtubule) | IC50 (BON-1 cells) | increase of IFN-γ expression (human CD8+ T cells) | increase of IL-2 expression (human CD8+ T cells) |
| --- | --- | --- | --- | --- |
| CC[C@H](C)[C@@H]([C@@H](CC(=O)N1CCC[C@H]1[C@H](OC)[C@@H](C)C(=O)N[C@H](C)[C@@H](O)c1ccccc1)OC)N(C)C(=O)[C@@H](NC(=O)[C@@H](NC)C(C)C)C(C)C [MMAE, monomethyl auristatin E] (H-[NMeV]V[Dil][Dolaproine]-X1) | microtubule de-polymerization | 2 nM | – | – |
| C[C@@H](O)[C@@H]1NC(=O)[C@H](CCCCN)NC(=O)[C@@H](Cc2c[nH]c3ccccc23)NC(=O)[C@H](Cc2ccccc2)NC(=O)[C@@H](NC(=O)[C@H](N)Cc2ccccc2)CSSC[C@@H](C(=O)N[C@H](CO)[C@@H](C)O)NC1=O [Octreotide] | – | – | 2.2 folds | 1.6 folds |
